Here are results for 23 molecules from patent US11446287B2, “Compounds and methods for EP300 or CBP modulation and indications therefor” (Opna Immuno-Oncology SA, priority 2019, dated 2022).

T1 sequence (Q92793 1081-1197): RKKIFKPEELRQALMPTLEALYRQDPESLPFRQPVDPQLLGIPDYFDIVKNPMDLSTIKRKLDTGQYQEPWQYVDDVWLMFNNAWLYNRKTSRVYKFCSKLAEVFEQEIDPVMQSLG

This assay has as its target T1, Recombinant human CBP containing the bromodomain (CBP-BD (1043-1159)) (Homo sapiens, UniProt Q92793).
T1 construct: Recombinant human CBP bromodomain (CBP-BD (1043-1159)); made in house; host or cells: E. coli BL21-CodonPlus (DE3), modified pET vector
Kind of assay: CBP Alphascreen binding assay. As to conditions: read-out: CREBBP (CBP) IC50. An outline of the steps: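 Buffer: 50 mM HEPES pH 7.5, 50 mM NaCl, 0.01% BSA, 0.01% Triton X-100, 2 mM DTT. The signal was normalised to plate controls and fitted with a four-parameter curve to give IC50.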
A general note: Alpha assays give light when donor and acceptor beads are brought close together.
What is called IC50 is the concentration needed to halve the response being measured. Take `Cc1noc(C)c1-c1cnc2c(c1)c(-c1ccc(C(=O)O)cc1OC(F)(F)F)cn2-c1ccncc1F` [P-0293, 4-(5-(3,5-dimethylisoxazol-4-yl)-1-(3-fluoropyridin-4-yl)-1H-pyrrolo[2,3-b]pyridin-3-yl)-3-(trifluoromethoxy)benzoic acid]: the IC50 fell in the range of 0.1 to 1000 nM.
The result for `Cc1noc(C)c1-c1cnc2c(c1)c(-c1ccc(C(=O)O)cc1OC(F)(F)F)cn2-c1cnn(CC(C)(C)O)c1` [P-0294, 4-(5-(3,5-dimethylisoxazol-4-yl)-1-(1-(2-hydroxy-2-methylpropyl)-1H-pyrazol-4-yl)-1H-pyrrolo[2,3-b]pyridin-3-yl)-3-(trifluoromethoxy)benzoic acid] reads 0.1 to 1000 nM; that for `CCOc1cc(C(=O)O)ncc1-c1cn(-c2ccc(F)cc2F)c2ncc(-c3c(C)noc3C)cc12` [P-0295, 5-(1-(2,4-difluorophenyl)-5-(3,5-dimethylisoxazol-4-yl)-1H-pyrrolo[2,3-b]pyridin-3-yl)-4-ethoxypicolinic acid], 0.1 to 1000 nM.
With `CCOc1c(F)c(C(=O)O)c(F)c(OCC)c1-c1cn(-c2ccc(F)cc2F)c2ncc(-c3c(C)noc3C)cc12` [P-0296, 4-(1-(2,4-difluorophenyl)-5-(3,5-dimethylisoxazol-4-yl)-1H-pyrrolo[2,3-b]pyridin-3-yl)-3,5-diethoxy-2,6-difluorobenzoic acid] the figure was 0.1 to 1000 nM.
With `CCOc1cc(C(=O)O)c(F)c(OCC)c1-c1cn(-c2ccc(F)cc2F)c2ncc(-c3c(C)noc3C)cc12` [P-0297, 4-(1-(2,4-difluorophenyl)-5-(3,5-dimethylisoxazol-4-yl)-1H-pyrrolo[2,3-b]pyridin-3-yl)-3,5-diethoxy-2-fluorobenzoic acid] the figure was 0.1 to 1000 nM.
For `Cc1noc(C)c1-c1cnc2c(-c3ccccc3)cn(-c3c(OCC(F)(F)F)cc(C(=O)O)cc3OCC(F)(F)F)c2c1` [P-0298, 4-(6-(3,5-dimethylisoxazol-4-yl)-3-phenyl-1H-pyrrolo[3,2-b]pyridin-1-yl)-3,5-bis(2,2,2-trifluoroethoxy)benzoic acid], the IC50 is 0.1 to 1000 nM.
With `Cc1noc(C)c1-c1cnc2c(c1)c(-c1ccc(C(=O)O)cc1OC(C)C)cn2-c1cnn(CC(C)(C)O)c1` [P-0299, 4-(5-(3,5-dimethylisoxazol-4-yl)-1-(1-(2-hydroxy-2-methylpropyl)-1H-pyrazol-4-yl)-1H-pyrrolo[2,3-b]pyridin-3-yl)-3-isopropoxybenzoic acid] the figure was 0.1 to 1000 nM; with `Cc1noc(C)c1-c1cnc2c(c1)c(-c1ccc(C(=O)O)cc1OC(C)C)cn2-c1cnc(N2CCC2)nc1` [P-0300, 4-(1-(2-(azetidin-1-yl)pyrimidin-5-yl)-5-(3,5-dimethylisoxazol-4-yl)-1H-pyrrolo[2,3-b]pyridin-3-yl)-3-isopropoxybenzoic acid], 0.1 to 1000 nM; with `Cc1noc(C)c1-c1cnc2c(c1)c(-c1ccc(C(=O)O)cc1OC(C)C)cn2[C@H]1CCOC1` [P-0301, (S)-4-(5-(3,5-dimethylisoxazol-4-yl)-1-(tetrahydrofuran-3-yl)-1H-pyrrolo[2,3-b]pyridin-3-yl)-3-isopropoxybenzoic acid], 0.1 to 1000 nM.
In the case of `Cc1noc(C)c1-c1cnc2c(c1)c(-c1ccc(S(C)(=O)=O)cc1OC(C)C)cn2-c1ccccc1` [P-0302, 4-(3-(2-isopropoxy-4-(methylsulfonyl)phenyl)-1-phenyl-1H-pyrrolo[2,3-b]pyridin-5-yl)-3,5-dimethylisoxazole], the IC50 is 0.1 to 1000 nM.
For the molecule `CCCn1nc(C(=O)O)c(N)c1-c1cn(-c2ccc(F)cc2F)c2ncc(-c3c(C)noc3C)cc12` [P-0303, 4-amino-5-(1-(2,4-difluorophenyl)-5-(3,5-dimethylisoxazol-4-yl)-1H-pyrrolo[2,3-b]pyridin-3-yl)-1-propyl-1H-pyrazole-3-carboxylic acid], the IC50 lay within 0.1 to 1000 nM.
With `CCCn1nc(C(=O)O)c(NCC)c1-c1cn(-c2ccc(F)cc2F)c2ncc(-c3c(C)noc3C)cc12` [P-0304, 5-(1-(2,4-difluorophenyl)-5-(3,5-dimethylisoxazol-4-yl)-1H-pyrrolo[2,3-b]pyridin-3-yl)-4-(ethylamino)-1-propyl-1H-pyrazole-3-carboxylic acid] the figure was 0.1 to 1000 nM.
`Cc1nnn(C)c1-c1cnc2c(c1)c(-c1ccc(C(=O)O)cc1OC(F)(F)F)cn2CC/C=C/C1CC1` [P-0305, (E)-4-(1-(4-cyclopropylbut-3-en-1-yl)-5-(1,4-dimethyl-1H-1,2,3-triazol-5-yl)-1H-pyrrolo[2,3-b]pyridin-3-yl)-3-(trifluoromethoxy)benzoic acid]: the IC50 was 0.1 to 1000 nM.
With `Cc1noc(C)c1-c1cnc2c(c1)c(-c1ccc(C(=O)O)cc1OCC(F)F)cn2-c1ccncc1Cl` [P-0306, 4-(1-(3-chloropyridin-4-yl)-5-(3,5-dimethylisoxazol-4-yl)-1H-pyrrolo[2,3-b]pyridin-3-yl)-3-(2,2-difluoroethoxy)benzoic acid] the figure was 0.1 to 1000 nM; with `Cc1noc(C)c1-c1cnc2c(c1)c(-c1ccc(C(=O)O)cc1OC(F)(F)F)cn2-c1ccccc1Cl` [P-0307, 4-(1-(2-chlorophenyl)-5-(3,5-dimethylisoxazol-4-yl)-1H-pyrrolo[2,3-b]pyridin-3-yl)-3-(trifluoromethoxy)benzoic acid], 0.1 to 1000 nM.
The result for `Cc1noc(C)c1-c1cnc2c(c1)c(-c1ccc(C(=O)O)cc1OC(F)(F)F)cn2-c1ccccc1C1CC1` [P-0308, 4-(1-(2-cyclopropylphenyl)-5-(3,5-dimethylisoxazol-4-yl)-1H-pyrrolo[2,3-b]pyridin-3-yl)-3-(trifluoromethoxy)benzoic acid] reads 0.1 to 1000 nM; that for `Cc1noc(C)c1-c1cnc2c(c1)c(-c1ccc(C(=O)O)cc1OC(F)(F)F)cn2-c1ccccc1C#N` [P-0309, 4-(1-(2-cyanophenyl)-5-(3,5-dimethylisoxazol-4-yl)-1H-pyrrolo[2,3-b]pyridin-3-yl)-3-(trifluoromethoxy)benzoic acid], 0.1 to 1000 nM; that for `Cc1cc(C#N)ccc1-n1cc(-c2ccc(C(=O)O)cc2OC(F)(F)F)c2cc(-c3c(C)noc3C)cnc21` [P-0310, 4-(1-(4-cyano-2-methylphenyl)-5-(3,5-dimethylisoxazol-4-yl)-1H-pyrrolo[2,3-b]pyridin-3-yl)-3-(trifluoromethoxy)benzoic acid], 0.1 to 1000 nM.
The result for `COc1ccc(-n2cc(-c3ccc(C(=O)O)cc3OC(F)(F)F)c3cc(-c4c(C)noc4C)cnc32)c(F)c1` [P-0311, 4-(5-(3,5-dimethylisoxazol-4-yl)-1-(2-fluoro-4-methoxyphenyl)-1H-pyrrolo[2,3-b]pyridin-3-yl)-3-(trifluoromethoxy)benzoic acid] reads 0.1 to 1000 nM; that for `C=C(C)c1ccccc1-n1cc(-c2ccc(C(=O)O)cc2OC(F)(F)F)c2cc(-c3c(C)noc3C)cnc21` [P-0312, 4-(5-(3,5-dimethylisoxazol-4-yl)-1-(2-(prop-1-en-2-yl)phenyl)-1H-pyrrolo[2,3-b]pyridin-3-yl)-3-(trifluoromethoxy)benzoic acid], 0.1 to 1000 nM.
In the case of `Cc1noc(C)c1-c1cnc2c(c1)c(-c1ccc(C(=O)O)cc1OC(F)(F)F)cn2-c1ccc(C#N)cc1` [P-0313, 4-(1-(4-cyanophenyl)-5-(3,5-dimethylisoxazol-4-yl)-1H-pyrrolo[2,3-b]pyridin-3-yl)-3-(trifluoromethoxy)benzoic acid], the IC50 was in the range of 0.1 to 1000 nM.
As for `Cc1noc(C)c1-c1cnc2c(c1)c(-c1ccc(C(=O)O)cc1OC(F)(F)F)cn2-c1ccc(C(C)(C)O)cc1` [P-0314, 4-(5-(3,5-dimethylisoxazol-4-yl)-1-(4-(2-hydroxypropan-2-yl)phenyl)-1H-pyrrolo[2,3-b]pyridin-3-yl)-3-(trifluoromethoxy)benzoic acid], the IC50 fell in the range of 0.1 to 1000 nM.
With `Cc1noc(C)c1-c1cnc2c(c1)c(-c1ccc(C(=O)O)cc1OC(F)(F)F)cn2-c1ccsc1` [P-0315, 4-(5-(3,5-dimethylisoxazol-4-yl)-1-(thiophen-3-yl)-1H-pyrrolo[2,3-b]pyridin-3-yl)-3-(trifluoromethoxy)benzoic acid] the figure was 0.1 to 1000 nM.
